According to US9776976B2, “Triazolone compounds and uses thereof” (Inception 2, Inc., priority 2013, dated 2017):
pIC50: −log10 of the molar value. Where two headings read alike, the source gives them in different places.

How the values were obtained:
Type in all cases: cell-based
[1] = molecular target: T1, Human PPARα (Homo sapiens, UniProt Q07869); assay: Human PPARα Reporter Assay (luciferase, Indigo Biosciences); conditions: antagonist mode, reporter cells, overnight incubation
T1 construct: host or cells: proprietary non-human mammalian cells
T1 sequence (Q07869 1-468): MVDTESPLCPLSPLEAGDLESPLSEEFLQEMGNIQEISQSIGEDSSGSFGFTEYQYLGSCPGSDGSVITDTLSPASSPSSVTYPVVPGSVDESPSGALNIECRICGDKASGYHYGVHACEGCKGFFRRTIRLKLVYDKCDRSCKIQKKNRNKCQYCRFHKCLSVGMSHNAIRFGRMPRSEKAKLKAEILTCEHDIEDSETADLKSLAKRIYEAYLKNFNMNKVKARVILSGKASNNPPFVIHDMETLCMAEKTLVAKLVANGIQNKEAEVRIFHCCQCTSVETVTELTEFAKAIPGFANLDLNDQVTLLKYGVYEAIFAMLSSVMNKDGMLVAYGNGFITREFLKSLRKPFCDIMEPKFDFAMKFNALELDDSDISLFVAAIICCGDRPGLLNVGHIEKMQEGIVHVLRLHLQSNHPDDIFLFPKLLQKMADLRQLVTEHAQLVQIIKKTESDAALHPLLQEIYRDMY
Experimental: Human PPARα Reporter Assay The screening of test compounds for agonist or antagonist activities against human PPARα receptors was performed using a commercial kit, Human PPARα Reporter Assay System (Indigo Biosciences, Cat. #IB00111). This nuclear receptor assay system utilizes proprietary non-human mammalian cells engineered to provide constitutive, high-level expression of Human PPARα. Because these cells incorporate a PPARα-responsive luciferase reporter gene, quantifying expressed luciferase activity provides a sensitive surrogate measure of PPARα activity in the treated cells. The primary application of this reporter assay system is in the screening of test samples to quantify any functional activity, either agonist or antagonist, that they may exert against human PPARα. […] Briefly, reporter cells are dispensed into wells of the assay plate and then immediately dosed with test compounds. Following an overnight incubation, the treatment media is discarded and Luciferase Detection Reagent (LDR) is added. The intensity of light emission from the ensuing luciferase reaction provides a sensitive measure that is directly proportional to the relative level of PPARα activation in the reporter cells.

[2] = molecular target: T2, human PPAR β/δ (Homo sapiens, UniProt Q03181); assay: Human PPAR β/δ reporter assay (luciferase, Indigo Biosciences kit); conditions: antagonist mode, agonist at ~EC80; read-out: PPARδ Luciferase IC50
T2 construct: host or cells: engineered reporter cells (analogous to the PPARα kit)
T2 sequence (Q03181 1-441): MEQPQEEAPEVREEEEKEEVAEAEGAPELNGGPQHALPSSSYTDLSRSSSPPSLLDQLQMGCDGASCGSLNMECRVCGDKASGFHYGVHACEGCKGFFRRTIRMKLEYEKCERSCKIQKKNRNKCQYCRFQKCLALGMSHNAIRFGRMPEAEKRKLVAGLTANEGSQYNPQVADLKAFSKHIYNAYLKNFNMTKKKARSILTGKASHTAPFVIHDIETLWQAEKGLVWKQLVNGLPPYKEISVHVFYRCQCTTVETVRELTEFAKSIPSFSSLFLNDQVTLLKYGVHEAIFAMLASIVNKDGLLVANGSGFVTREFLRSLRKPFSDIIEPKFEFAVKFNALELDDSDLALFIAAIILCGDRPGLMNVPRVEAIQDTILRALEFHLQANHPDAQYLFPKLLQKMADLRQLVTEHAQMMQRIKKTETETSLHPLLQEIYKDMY
Experimental: (§1) Target Selectivity Assays
(§2) To determine species selectivity, a Mouse PPARα Reporter Assay System was used (Indigo Biosciences, Cat. #M00111). Activity of test compounds to antagonize or agonize other isoforms of human PPAR, for example β/δ and γ, were assessed using the corresponding kits from Indigo Biosciences (Cat. #IB00121 and #IB00101, respectively). In addition to PPAR activity, compounds were also screened for activity against other nuclear hormone receptors including Estrogen Receptor β, Glucocorticoid Receptor and Thyroid Receptor β using commercially available kits (Indigo Biosciences, Cat. #IB00411, IB00201 and IB01101, respectively). Each assay system from Indigo Biosciences uses technology analogous to the human PPARα kit, with the variance being that the cells used for each assay were engineered to over-express the receptor of interest. In addition, the appropriate receptor agonist (included with each kit) was used at ˜EC80 for assays in which antagonist potency was being assessed.

[3] = molecular target: T3, human PPAR γ (Homo sapiens, UniProt P37231); assay: Human PPARγ reporter assay (Indigo Biosciences kit)
T3 sequence (P37231 1-505): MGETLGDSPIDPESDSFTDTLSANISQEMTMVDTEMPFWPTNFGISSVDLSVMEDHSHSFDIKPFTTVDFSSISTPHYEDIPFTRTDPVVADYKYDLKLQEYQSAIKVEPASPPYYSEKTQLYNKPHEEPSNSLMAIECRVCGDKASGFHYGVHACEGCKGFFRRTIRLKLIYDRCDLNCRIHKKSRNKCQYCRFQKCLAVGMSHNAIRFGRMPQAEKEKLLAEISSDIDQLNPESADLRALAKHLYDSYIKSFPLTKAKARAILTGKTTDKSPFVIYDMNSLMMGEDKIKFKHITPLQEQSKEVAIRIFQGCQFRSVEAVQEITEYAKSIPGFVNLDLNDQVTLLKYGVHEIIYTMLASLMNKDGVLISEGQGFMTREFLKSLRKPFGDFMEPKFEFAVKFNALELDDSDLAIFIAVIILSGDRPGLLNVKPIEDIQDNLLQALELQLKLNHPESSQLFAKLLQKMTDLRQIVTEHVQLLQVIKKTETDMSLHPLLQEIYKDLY
Experimental: as §1, §2

[4] = antagonist mode, agonist at ~EC80, read-out: PPARγ

Compound | pIC50 [1] | pIC50 [2] | pIC50 [3, 4] | pIC50 [3]
CCOc1ccc(-c2ccc(CCCc3nn(-c4ccc(C(F)(F)F)cc4)c(=O)n3C3CCCC(C)C3)cc2)cc1CC(=O)O (stereo not drawn) [Example 6] | 6.87 | 6.81 | 4.74 | 
CCOc1ccc(-c2ccc(CCCc3nn(-c4ccc(OC(F)(F)F)cc4)c(=O)n3C3CCCCC3)cc2)cc1CC(=O)O [Example 8, 2-(4′-(3-(4-cyclohexyl-5-oxo-1-(4-(trifluoromethoxy)phenyl)-4,5-dihydro-1H-1,2,4-triazol-3-yl)propyl)-4-ethoxy-[1,1% biphenyl]-3-yl)acetic acid] | 7.54 | 6.30 | 4.57 | 
CCOc1ccc(-c2ccc(CCCc3nn(-c4ccc(C(F)(F)F)cc4)c(=O)n3-c3ccccc3F)cc2C)cc1CC(=O)O [Example 9, 2-(4-ethoxy-4′-(3-(4-(2-fluorophenyl)-5-oxo-1-(4-(trifluoromethyl)phenyl)-4,5-dihydro-1H-1,2,4-triazol-3-yl)propyl)-2′-methyl-[1,1% biphenyl]-3-yl)acetic acid] | 6.60 | 6.51 | 4.40 | 
Cc1cc(CCCc2nn(-c3ccc(C(F)(F)F)cc3)c(=O)n2-c2ccccc2F)ccc1-c1ccc(C(F)(F)F)c(C(=O)O)c1 [Example 10, 4′-(3-(4-(2-fluorophenyl)-5-oxo-1-(4-(trifluoromethyl)phenyl)-4,5-dihydro-1H-1,2,4-triazol-3-yl)propyl)-2′-methyl-(4-trifluoromethyl)-[1,1′-biphenyl-]-3-carboxylic acid] | 6.72 | 6.70 | 4.55 | 
CCOc1ccc(-c2ccc(CCCc3nn(-c4ccc(C(F)(F)F)cc4)c(=O)n3-c3ccccc3F)cc2C)cc1C(=O)O [Example 11, 4-ethoxy-4′-(3-(4-(2-fluorophenyl)-5-oxo-1-(4-(trifluoromethyl)phenyl)-4,5-dihydro-1H-1,2,4-triazol-3-yl)propyl)-2′-methyl-[1,1% biphenyl-]-3-carboxylic acid] | 7.38 | 6.91 | 4.61 | 
CCCn1c(CCCc2ccc(-c3cccc(NS(=O)(=O)c4ccccc4)n3)cc2)nn(-c2ccc(C(F)(F)F)cc2)c1=O [Example 13, N-(6-(4-(3-(5-oxo-4-propyl-1-(4-(trifluoromethyl)phenyl)-4,5-dihydro-1H-1,2,4-triazol-3-yl)propyl)phenyl)pyridin-2-yl)benzenesulfonamide] | 6.74 | 5.94 | < 4.00 | 
COc1ccc(-c2ccc(CCCc3nn(-c4ccc(C(F)(F)F)cc4)c(=O)n3C3CC3)cc2)cc1CC(=O)O [Example 14, 2-(4′-(3-(4-cyclopropyl-5-oxo-1-(4-(trifluoromethyl)phenyl)-4,5-dihydro-1H-1,2,4-triazol-3-yl)propyl)-4-methoxy-[1,1′-biphenyl]-3-yl)acetic acid] | 6.97 | 6.16 | 4.27 | 
COc1ccc(-c2ccc(CCCc3nn(-c4ccc(C(F)(F)F)cc4)c(=O)n3Cc3ccccc3F)cc2)cc1CC(=O)O [Example 15, 2-(4′-(3-(4-(2-fluorobenzyl)-5-oxo-1-(4-(trifluoromethyl)phenyl)-4,5-dihydro-1H-1,2,4-triazol-3-yl)propyl)-4-methoxy-[1,1′-biphenyl]-3-yl)acetic acid] | 4.41 | 5.08 | < 4.00 | 
CCOc1ccc(-c2ccc(CCCc3nn(-c4ccc(C(F)(F)F)cc4)c(=O)n3CC(C)C)cc2)cc1CC(=O)O [Example 20] | 6.82 | 6.44 | 4.48 | 
CCOc1ccc(-c2ccc(CCCc3nn(-c4ccc(C(F)(F)F)cc4)c(=O)n3-c3ccccc3OC)cc2)cc1CC(=O)O [Example 26] |  |  |  | 4.83
CCOc1ccc(-c2ccc(CCCc3nn(-c4ccccc4F)c(=O)n3-c3ccc(C(F)(F)F)cc3)cc2)cc1CC(=O)O [Example 36, 2-(4-ethoxy-4′-(3-(1-(2-fluorophenyl)-5-oxo-4-(4-(trifluoromethyl)phenyl)-4,5-dihydro-1H-1,2,4-triazol-3-yl)propyl)-[1,1′-biphenyl]-3-yl)acetic acid] |  |  | 4.10 | 

Continued by rising pIC50 [3, 4], values first:

pIC50 [1] | pIC50 [2] | pIC50 [3, 4] | Compound | pIC50 [3]
 |  | 4.20 | CCOc1ccc(-c2ccc(CCCc3nn(-c4ccc(C(F)(F)F)cc4)c(=O)n3-c3ccccc3F)cc2)cc1C(=O)O [Example 32, 4-ethoxy-4′-(3-(4-(2-fluorophenyl)-5-oxo-1-(4-(trifluoromethyl)phenyl)-4,5-dihydro-1H-1,2,4-triazol-3-yl)propyl)-[1,1′-biphenyl]-3-carboxylic acid] | 
7.52 | 7.17 | 4.26 | CCOc1ccc(-c2ccc(CCCc3nn(-c4ccc(C(F)(F)F)cc4)c(=O)n3-c3cccc(F)c3)cc2)cc1CC(=O)O [Example 21] | 
6.95 | 6.32 | 4.30 | CCCn1c(CCCc2ccc(-c3ccc(OCC)c(CC(=O)O)c3)cc2)nn(-c2ccc(C(F)(F)F)cc2)c1=O [Example 3, 2-(4-ethoxy-4′-(3-(5-oxo-4-propyl-1-(4-(trifluoromethyl)phenyl)-4,5-dihydro-1H-1,2,4-triazol-3-yl)propyl)-[1,1′-biphenyl]-3-yl)acetic acid] | 
7.06 | 7.21 | 4.35 | CCOc1ccc(-c2ccc(CCCc3nn(-c4ccc(C(F)(F)F)cc4)c(=O)n3-c3cc(F)ccc3F)cc2)cc1CC(=O)O [Example 22] | 
6.96 | 6.90 | 4.40 | CCOc1ccc(-c2ccc(CCCc3nn(-c4ccc(C(F)(F)F)cc4)c(=O)n3C3CCC(C)CC3)cc2)cc1CC(=O)O (stereo not drawn) [Example 5] | 
7.37 | 6.31 | 4.51 | CCCOc1ccc(-c2ccc(CCCc3nn(-c4ccc(C(F)(F)F)cc4)c(=O)n3C3CC3)cc2)cc1CC(=O)O [Example 17, 2-(4′-(3-(4-cyclopropyl-5-oxo-1-(4-(trifluoromethyl)phenyl)-4,5-dihydro-1H-1,2,4-triazol-3-yl)propyl)-4-propoxy-[1,1′-biphenyl-]-3-yl)acetic acid] | 
7.51 | 7.49 | 4.65 | CCOc1ccc(-c2ccc(CCCc3nn(-c4ccc(C(F)(F)F)cc4)c(=O)n3-c3ccccc3Cl)cc2)cc1CC(=O)O [Example 19] | 
6.49 | 6.66 | 4.71 | CCOc1ccc(-c2ccc(CCCc3nn(-c4ccc(C(F)(F)F)cc4)c(=O)n3C3CCCCC3C)cc2)cc1CC(=O)O (stereo not drawn) [Example 7] | 
